The data set can be described thus: Chart review of BONJ incidence in patients treated with bisphosphonates (UF / VAMC). It counts as in vivo, human. The conditions noted are these: outpatient bone marrow transplant clinic, all patients had myeloma; pamidronate only (total incidence 13%). An excerpt:
Medical and dental charts at the University of Florida (UF) and the associated Veterans Administration Medical Center (VAMC) were reviewed. […] There were 21 males. […] Fourteen patients had modest increases in their serum creatinine concentrations. The average number of previous chemo/radiotherapy regimens was 3.5. Nine patients had Thalidomide, 5 had Bortizomib. Primary disease status was as follows: 12 patients in clinical remission, 5 with stable disease and 10 with progressive disease. Eight patients received statin therapy and 6 had diabetes mellitus. The median length of treatment with BP before the diagnosis of BONJ was 28 months. BONJ involved the mandible in 21 patients, maxilla in 4 and both in 2 patients. The most frequent presentation was pain, swelling, and exposed bone (FIG. 1). […] The BONJ incidence differed among the 3 centers where these patients were treated. […] The incidence in the VAMC was 4.2% while the incidence in the Cancer Center clinic at UF was 1.7%. In the latter two groups, patients had mostly solid tumors. The results described herein are consistent with the reports of increased incidence of BONJ with greater duration of therapy and that myeloma patients are more likely to develop the complication than solid tumor patients.

Compound `NCCC(O)(P(=O)(O)O)P(=O)(O)O` [pamidronate] displayed a BONJ incidence of 4%.
